Measurements from patent publication US7468391B2, “Methods for treating retinoid responsive disorders using selective inhibitors of CYP26A and CYP26B” (Allergan, Inc., priority 2003, dated 2008).

Columns and labels:
CYP26A (P450RAI-1) = target: T1, CYP26A (P450RAI-1) (Homo sapiens, UniProt O43174); test: Cell-based inhibition of RA metabolism in CYP26A stably transfected HeLa cells; settings: stably transfected HeLa cells, [3H]-RA, 3 hours at 37° C.; read-out: P450RAI-1 Whole cell IC50
T1 construct: expressed in transfected cells; host or cells: HeLa
T1 sequence (O43174 1-497): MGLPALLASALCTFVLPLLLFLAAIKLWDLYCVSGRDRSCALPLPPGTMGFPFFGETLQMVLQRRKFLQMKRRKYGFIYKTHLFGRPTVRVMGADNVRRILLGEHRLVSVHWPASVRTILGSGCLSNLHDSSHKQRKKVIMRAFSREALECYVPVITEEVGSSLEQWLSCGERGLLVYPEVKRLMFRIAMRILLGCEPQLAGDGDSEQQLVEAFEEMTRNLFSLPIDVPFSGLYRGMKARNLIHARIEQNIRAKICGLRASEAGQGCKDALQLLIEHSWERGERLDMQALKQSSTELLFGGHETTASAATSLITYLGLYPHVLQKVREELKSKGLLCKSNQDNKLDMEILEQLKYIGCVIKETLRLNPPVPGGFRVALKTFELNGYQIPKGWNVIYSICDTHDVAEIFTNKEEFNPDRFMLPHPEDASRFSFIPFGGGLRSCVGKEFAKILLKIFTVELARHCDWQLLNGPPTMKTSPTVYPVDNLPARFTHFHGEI
Procedure, shortened: (§1)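 Stably transfected HeLa cells (5×10^5/well) in MEM with 10% FBS and 0.05 μCi [3H]-RA, compounds at 10, 1 or 0.1 μM final, 3 h at 37° C. Retinoids extracted by modified Bligh-Dyer (methylene chloride); aqueous radioactivity counted; ID50 for 50% inhibition of RA metabolism derived from log-transformed data.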

CYP26B (P450RAI-2) = target: T2, CYP26B (P450RAI-2) (Homo sapiens, UniProt Q9NR63); test: Cell-based inhibition of RA metabolism in CYP26B stably transfected HeLa cells; settings: stably transfected HeLa cells, [3H]-RA, 3 hours at 37° C.; read-out: P450RAI-2 Whole cell IC50
T2 construct: expressed in transfected cells; host or cells: HeLa
T2 sequence (Q9NR63 1-512): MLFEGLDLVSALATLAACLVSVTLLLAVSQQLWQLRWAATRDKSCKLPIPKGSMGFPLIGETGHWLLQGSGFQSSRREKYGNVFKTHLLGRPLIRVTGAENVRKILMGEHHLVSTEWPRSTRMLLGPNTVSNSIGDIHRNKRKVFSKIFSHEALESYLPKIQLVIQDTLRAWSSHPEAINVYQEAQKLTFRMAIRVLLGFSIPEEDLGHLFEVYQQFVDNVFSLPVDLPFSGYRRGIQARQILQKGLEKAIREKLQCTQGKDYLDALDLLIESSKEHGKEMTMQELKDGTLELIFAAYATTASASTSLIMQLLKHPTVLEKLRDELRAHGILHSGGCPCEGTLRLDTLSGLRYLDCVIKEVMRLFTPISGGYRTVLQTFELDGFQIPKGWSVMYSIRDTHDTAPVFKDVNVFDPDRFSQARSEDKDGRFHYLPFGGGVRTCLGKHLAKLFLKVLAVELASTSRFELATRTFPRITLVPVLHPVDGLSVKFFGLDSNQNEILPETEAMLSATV
Procedure, shortened: as §1

RAR α [1] = target: T3, RAR α (Homo sapiens, UniProt P10276); test: RAR α EC50/(efficacy); type: cell-based; settings: for RAR α (EFFICACY): value in brackets of cell EC50/(EFFICACY)/Kd; for EC50: first item of cell EC50/(EFFICACY)/Kd
T3 sequence (P10276 1-462): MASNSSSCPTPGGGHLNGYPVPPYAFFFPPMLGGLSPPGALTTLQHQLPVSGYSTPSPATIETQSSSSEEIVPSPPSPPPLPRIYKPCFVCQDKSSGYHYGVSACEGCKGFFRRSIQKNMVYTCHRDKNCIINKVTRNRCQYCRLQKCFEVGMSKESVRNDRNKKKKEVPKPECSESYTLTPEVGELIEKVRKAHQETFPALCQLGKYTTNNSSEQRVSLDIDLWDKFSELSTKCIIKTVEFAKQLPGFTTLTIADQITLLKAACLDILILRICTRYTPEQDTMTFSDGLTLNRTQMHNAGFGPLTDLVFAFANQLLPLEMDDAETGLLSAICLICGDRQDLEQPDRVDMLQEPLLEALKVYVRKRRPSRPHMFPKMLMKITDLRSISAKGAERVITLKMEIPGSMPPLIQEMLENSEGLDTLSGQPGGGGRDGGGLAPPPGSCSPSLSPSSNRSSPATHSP

RAR β [2] = target: T4, RAR β (Homo sapiens, UniProt P10826); test: RAR β EC50/(efficacy); type: cell-based; settings: for RAR β (EFFICACY): value in brackets of cell EC50/(EFFICACY)/Kd; for EC50: first item of cell EC50/(EFFICACY)/Kd
T4 sequence (P10826 1-455): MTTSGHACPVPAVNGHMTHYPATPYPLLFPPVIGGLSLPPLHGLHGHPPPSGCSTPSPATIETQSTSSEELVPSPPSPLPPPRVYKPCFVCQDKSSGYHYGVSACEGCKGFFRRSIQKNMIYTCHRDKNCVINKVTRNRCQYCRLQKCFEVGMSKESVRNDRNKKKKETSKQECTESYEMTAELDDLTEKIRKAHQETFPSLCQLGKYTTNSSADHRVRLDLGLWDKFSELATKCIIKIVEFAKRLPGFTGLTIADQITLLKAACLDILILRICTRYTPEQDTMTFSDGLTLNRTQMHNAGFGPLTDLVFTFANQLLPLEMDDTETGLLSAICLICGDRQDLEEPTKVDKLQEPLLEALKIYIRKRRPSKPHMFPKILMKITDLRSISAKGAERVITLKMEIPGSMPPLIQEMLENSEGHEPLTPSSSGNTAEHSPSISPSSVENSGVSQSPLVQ

RAR γ [3] = target: T5, RAR γ (Homo sapiens, UniProt P13631); test: RAR γ EC50/(efficacy); type: cell-based; settings: for RAR γ (EFFICACY): value in brackets of cell EC50/(EFFICACY)/Kd; for EC50: first item of cell EC50/(EFFICACY)/Kd
T5 sequence (P13631 1-454): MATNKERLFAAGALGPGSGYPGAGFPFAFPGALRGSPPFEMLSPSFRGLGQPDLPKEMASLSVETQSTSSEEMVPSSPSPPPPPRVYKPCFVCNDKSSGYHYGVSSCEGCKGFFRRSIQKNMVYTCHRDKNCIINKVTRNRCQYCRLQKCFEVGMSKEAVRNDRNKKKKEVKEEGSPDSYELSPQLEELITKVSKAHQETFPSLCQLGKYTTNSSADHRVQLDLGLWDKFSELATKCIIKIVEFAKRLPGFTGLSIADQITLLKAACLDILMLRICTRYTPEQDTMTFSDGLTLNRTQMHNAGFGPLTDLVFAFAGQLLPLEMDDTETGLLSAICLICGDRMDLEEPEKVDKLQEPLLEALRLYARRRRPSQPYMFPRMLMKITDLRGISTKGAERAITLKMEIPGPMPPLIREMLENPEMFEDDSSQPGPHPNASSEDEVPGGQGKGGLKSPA

RAR α [4] = target: T3, RAR α; test: RAR α Kd; type: binding; settings: last item of cell EC50/(EFFICACY)/Kd
RAR β [5] = target: T4, RAR β; test: RAR β Kd; type: binding; settings: last item of cell EC50/(EFFICACY)/Kd
RAR γ [6] = target: T5, RAR γ; test: RAR γ Kd; type: binding; settings: last item of cell EC50/(EFFICACY)/Kd

IC50 (CYP26A (P450RAI-1)) | IC50 (CYP26B (P450RAI-2)) | RAR α (EFFICACY) (RAR α [1]) | RAR β (EFFICACY) (RAR β [2]) | RAR γ (EFFICACY) (RAR γ [3]) | Kd (RAR α [4]) | Kd (RAR β [5]) | Kd (RAR γ [6]) | EC50 (RAR β [2]) | EC50 (RAR γ [3]) | EC50 (RAR α [1]) | SMILES
300 nM | > 10000 nM | ~5 | 35 | ~5 | 3080 nM | 810 nM | > 10000 nM | – | – | – | CC(C)c1cc(C(=O)Oc2ccc(/C=C/C(=O)O)cc2)cc2c1OC(C)(C)CC2(C)C [Compound 16, 8-Isopropyl-2,2,4,4-tetramethyl-chroman-6-carboxylic acid 4-(2-carboxy-vinyl)-phenyl ester]
4000 nM | > 10000 nM | 10 | – | – | > 10000 nM | > 10000 nM | > 10000 nM | – | – | – | CC(C)OC(=O)c1ccc(C#Cc2ccc(CC(=O)O)cc2)cc1CN(C)C1CC1 [Compound 38, 4-(4-Carboxymethyl-phenylethynyl)-2-[(cyclopropyl-methyl-amino)-methyl]-benzoic acid isopropyl ester]
> 10000 nM | 500 nM | – | 80 | 48 | 1930 nM | 2090 nM | 2890 nM | 16 nM | 126 nM | – | CC(C)(C)c1cccc(C#Cc2ccc(/C=C/C(=O)O)cc2)c1 [Compound 35, (E)-3-[4-(3-tert-Butyl-phenylethynyl)-phenyl]-acrylic acid]
100 nM | 8800 nM | 10 | 59 | 66 | 2240 nM | 4470 nM | 1950 nM | 38 nM | 125 nM | – | C#CCc1c(C)c(C#Cc2ccc(CC(=O)O)cc2)cc(C(C)(C)C)c1OC(C)C [Compound 47, [4-(5-tert-Butyl-4-isopropoxy-2-methyl-3-prop-2-ynyl-phenylethynyl)-phenyl]-acetic acid]
> 10000 nM | 400 nM | – | 40 | 15 | > 10000 nM | 3520 nM | 2080 nM | – | – | – | Cc1ccc(C(C)(C)C)cc1C#Cc1ccc(/C=C/C(=O)O)cc1 [Compound 36, 3-[4-(5-tert-Butyl-2-methyl-phenylethynyl)-phenyl]-acrylic acid]
700 nM | > 10000 nM | 52 | 55 | 68 | 9.9 nM | 76 nM | 255 nM | 18 nM | 31 nM | 118 nM | C#Cc1c(C)c(C#Cc2ccc(CC(=O)O)cc2)cc(C(C)(C)C)c1OC(C)C [Compound 45, [4-(5-tert-Butyl-3-ethynyl-4-isopropoxy-2-methyl-phenylethynyl)-phenyl]-acetic acid]
> 10000 nM | 500 nM | 10 | 70 | 15 | > 10000 nM | 7020 nM | > 10000 nM | – | – | – | CN(c1cccc(C#Cc2ccc(/C=C/C(=O)O)cc2)c1)C1CC1 [Compound 37, (E)-3-{4-[3-(Cyclopropyl-methyl-amino)-phenylethynyl]-phenyl}-acrylic acid]
8 nM | 500 nM | – | 40 | 35 | > 10000 nM | > 10000 nM | > 10000 nM | – | – | – | C=Cc1cc(C#Cc2ccc(CC(=O)O)cc2)cc2c1C(N(C)C1CC1)CCC2(C)C (stereo not drawn) [Compound 23, {4-[5-(Cyclopropyl-methyl-amino)-8,8-dimethyl-4-vinyl-5,6,7,8-tetrahydro-naphthalen-2-ylethynyl]-phenyl}-acetic acid]
120 nM | > 10000 nM | – | 20 | 15 | > 10000 nM | > 10000 nM | > 10000 nM | – | – | – | CC1(C)CC2(CC2)Oc2c(C3CC3)cc(C#Cc3ccc(/C=C(\Cl)C(=O)O)cc3)cc21 [Compound 4]
700 nM | > 10000 nM | 67 | 75 | 65 | 85 nM | 45 nM | 215 nM | 10 nM | 7 nM | 65 nM | C=Cc1c(C)c(C#Cc2ccc(CC(=O)O)cc2)cc(C(C)(C)C)c1OC(C)C [Compound 46, [4-(5-tert-Butyl-4-isopropoxy-2-methyl-3-vinyl-phenylethynyl)-phenyl]-acetic acid]
